pIC50: −log10 of the molar value.
Biological target: H1047R PIK3CA enzyme (Homo sapiens, UniProt P42336, H1047R)
Experiment: ADP-Glo Biochemical PIK3CA Kinase Assay

H1047R PIK3CA enzyme, sequence (P42336 whole entry H1047R): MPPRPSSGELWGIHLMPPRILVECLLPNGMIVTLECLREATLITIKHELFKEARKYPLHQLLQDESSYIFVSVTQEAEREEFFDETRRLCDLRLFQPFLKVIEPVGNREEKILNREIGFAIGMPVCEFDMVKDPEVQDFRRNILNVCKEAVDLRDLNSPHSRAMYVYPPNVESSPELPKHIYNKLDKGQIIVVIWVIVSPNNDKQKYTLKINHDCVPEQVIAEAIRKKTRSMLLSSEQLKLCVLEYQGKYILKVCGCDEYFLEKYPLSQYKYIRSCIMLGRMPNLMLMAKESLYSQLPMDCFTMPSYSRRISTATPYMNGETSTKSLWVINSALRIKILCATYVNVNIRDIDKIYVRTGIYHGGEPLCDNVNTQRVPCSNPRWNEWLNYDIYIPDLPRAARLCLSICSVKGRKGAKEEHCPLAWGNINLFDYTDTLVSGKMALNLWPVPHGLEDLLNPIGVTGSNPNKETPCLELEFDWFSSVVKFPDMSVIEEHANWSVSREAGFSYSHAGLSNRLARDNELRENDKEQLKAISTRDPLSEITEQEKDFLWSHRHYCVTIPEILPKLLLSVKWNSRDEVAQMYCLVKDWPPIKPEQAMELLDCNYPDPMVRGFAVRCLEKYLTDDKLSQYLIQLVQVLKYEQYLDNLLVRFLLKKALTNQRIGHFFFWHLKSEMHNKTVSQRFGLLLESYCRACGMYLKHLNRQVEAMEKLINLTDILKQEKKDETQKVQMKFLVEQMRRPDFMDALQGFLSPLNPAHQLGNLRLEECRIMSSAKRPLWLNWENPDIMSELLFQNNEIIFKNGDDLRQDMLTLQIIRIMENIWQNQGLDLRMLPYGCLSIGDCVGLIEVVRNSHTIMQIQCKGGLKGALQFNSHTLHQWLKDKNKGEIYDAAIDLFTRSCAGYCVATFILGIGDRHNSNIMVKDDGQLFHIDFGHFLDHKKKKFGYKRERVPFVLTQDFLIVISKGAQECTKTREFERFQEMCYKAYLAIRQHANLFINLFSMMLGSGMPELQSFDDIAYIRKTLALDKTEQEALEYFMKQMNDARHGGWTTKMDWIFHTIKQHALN
H1047R PIK3CA enzyme, sequence (P27986 whole entry partner): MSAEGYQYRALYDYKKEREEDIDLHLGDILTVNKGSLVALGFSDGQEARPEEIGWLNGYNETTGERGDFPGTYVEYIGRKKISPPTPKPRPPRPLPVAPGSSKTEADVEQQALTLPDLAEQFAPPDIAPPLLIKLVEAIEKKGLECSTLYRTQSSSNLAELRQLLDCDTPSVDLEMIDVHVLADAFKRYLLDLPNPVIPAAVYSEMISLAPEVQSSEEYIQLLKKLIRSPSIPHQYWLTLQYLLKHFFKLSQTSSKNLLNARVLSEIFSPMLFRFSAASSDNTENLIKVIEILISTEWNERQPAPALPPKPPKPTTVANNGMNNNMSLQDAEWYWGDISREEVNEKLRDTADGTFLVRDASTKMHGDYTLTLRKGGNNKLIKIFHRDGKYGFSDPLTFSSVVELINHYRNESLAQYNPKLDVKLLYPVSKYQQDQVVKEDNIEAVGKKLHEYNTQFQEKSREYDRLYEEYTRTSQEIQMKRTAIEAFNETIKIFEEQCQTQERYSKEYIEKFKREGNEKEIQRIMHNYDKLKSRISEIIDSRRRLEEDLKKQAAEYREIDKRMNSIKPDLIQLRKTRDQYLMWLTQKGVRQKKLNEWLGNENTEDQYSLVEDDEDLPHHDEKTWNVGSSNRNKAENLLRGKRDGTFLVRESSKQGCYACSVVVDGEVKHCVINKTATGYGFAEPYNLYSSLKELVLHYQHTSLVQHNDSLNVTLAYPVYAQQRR

| SMILES | pIC50 |
| --- | --- |
| COc1ccc(Cl)cc1C(=O)Nc1cc(Br)cc2c1C(c1cc(F)ccc1Cl)NC2=O (stereo not drawn) [Compound I-799] | 5.00 to 6.00 |
| COc1cc(F)cc(C(=O)Nc2cc(Br)cc3c2C(c2cc(F)ccc2Cl)NC3=O)c1 (stereo not drawn) [Compound I-800] | 6.00 to 6.30 |
| O=C(Nc1cc(Br)cc2c1C(c1cc(F)ccc1Cl)NC2=O)c1cccc(C(F)(F)F)c1 (stereo not drawn) [Compound I-801] | 6.30 to 7.00 |
| O=C1NC(c2cc(F)ccc2Cl)c2c(NC(=O)c3cc(Cl)cc4cccnc34)cc(Br)cc21 (stereo not drawn) [Compound I-802] | 4.00 to 5.00 |
| O=C(Nc1cc(Br)cc2c1[C@H](c1cc(F)cc(F)c1Cl)NC2=O)c1cc(F)cc(C(F)(F)F)c1 [Compound I-805] | ≥ 7.00 |
| O=C(Nc1cc(Br)cc2c1[C@@H](c1cc(F)cc(F)c1Cl)NC2=O)c1cc(F)cc(C(F)(F)F)c1 [Compound I-806] | 6.00 to 6.30 |
| O=C(Nc1cc(Br)cc2c1C(c1cc(F)cc(F)c1Cl)NC2=O)c1cc(F)cc(C(F)(F)F)c1 (stereo not drawn) [Compound I-807] | ≥ 7.00 |
| CNC(=O)c1cc(NC(=O)c2cc(F)cc(C(F)(F)F)c2)c2c(c1)c(=O)[nH]n2-c1cc(F)ccc1Cl [Compound I-808] | 5.00 to 6.00 |
| O=C(Nc1cc(Br)cc2c1C(c1cc(F)ccc1Cl)NC2=O)c1cc(F)cc(C(F)(F)F)c1Cl (stereo not drawn) [Compound I-809] | 5.00 to 6.00 |
| O=C1Cc2cccc(C3NC(=O)c4cccc(NC(=O)c5cc(F)cc(C(F)(F)F)c5)c43)c2N1 (stereo not drawn) [Compound I-810] | 4.00 to 5.00 |
| O=C(Nc1cc(OC(F)F)cc2c1C(c1cc(F)ccc1Cl)NC2=O)c1cc(F)cc(C(F)(F)F)c1 (stereo not drawn) [Compound I-812] | ≥ 7.00 |
| CC1(Nc2cc(NC(=O)c3cc(F)cc(C(F)(F)F)c3)c3c(c2)C(=O)N[C@H]3c2cc(F)ccc2Cl)COC1 [Compound I-813] | ≥ 7.00 |
| O=C(Nc1cc(-c2ccn[nH]2)cc2c1C(c1cc(F)ccc1Cl)NC2=O)c1cc(F)cc(C(F)(F)F)c1 (stereo not drawn) [Compound I-815] | ≥ 7.00 |
| O=C(Nc1cc(Br)cc2c1C(c1cc(F)ccc1Cl)NC2=O)c1cc(F)cc(Cl)c1Cl (stereo not drawn) [Compound I-816] | 6.30 to 7.00 |
| CC1(Cc2cc(NC(=O)c3cc(F)cc(C(F)(F)F)c3)c3c(c2)C(=O)N[C@@H]3c2cc(F)ccc2Cl)COC1 [Compound I-817] | 5.00 to 6.00 |
| CC1(Cc2cc(NC(=O)c3cc(F)cc(C(F)(F)F)c3)c3c(c2)C(=O)N[C@H]3c2cc(F)ccc2Cl)COC1 [Compound I-818] | ≥ 7.00 |
| CC(C)(O)COc1cc(NC(=O)c2cc(F)cc(Cl)c2)c2c(c1)C(=O)NC2c1cc(F)ccc1Cl (stereo not drawn) [Compound I-819] | ≥ 7.00 |
| COC(C)(C)Cc1cc(NC(=O)c2cc(F)cc(C(F)(F)F)c2)c2c(c1)C(=O)NC2c1cc(F)ccc1Cl (stereo not drawn) [Compound I-820] | ≥ 7.00 |
| O=C(Nc1cc(-c2ccc3nncn3c2)cc2c1C(c1cc(F)ccc1Cl)NC2=O)c1cc(F)cc(C(F)(F)F)c1 (stereo not drawn) [Compound I-821] | ≥ 7.00 |
| O=C(Nc1cc(-c2cnc(C3CC3)nc2)cc2c1C(c1cc(F)ccc1Cl)NC2=O)c1cc(F)cc(C(F)(F)F)c1 (stereo not drawn) [Compound I-822] | ≥ 7.00 |
| O=C(Nc1cc(-c2cnc(C(F)(F)F)nc2)cc2c1C(c1cc(F)ccc1Cl)NC2=O)c1cc(F)cc(C(F)(F)F)c1 (stereo not drawn) [Compound I-823] | ≥ 7.00 |
| O=C(Nc1cc(-c2ccc3ncnn3c2)cc2c1C(c1cc(F)ccc1Cl)NC2=O)c1cc(F)cc(C(F)(F)F)c1 (stereo not drawn) [Compound I-824] | ≥ 7.00 |
| O=C(Nc1cc(-c2cnc3nccn3c2)cc2c1C(c1cc(F)ccc1Cl)NC2=O)c1cc(F)cc(C(F)(F)F)c1 (stereo not drawn) [Compound I-825] | ≥ 7.00 |

| SMILES | pIC50 |
| --- | --- |
| O=C(Nc1cc(-c2ccc3nccn3c2)cc2c1[C@@H](c1cc(F)ccc1Cl)NC2=O)c1cc(F)cc(C(F)(F)F)c1 [Compound I-826] | 6.00 to 6.30 |
| O=C(Nc1cc(-c2ccc3nccn3c2)cc2c1[C@H](c1cc(F)ccc1Cl)NC2=O)c1cc(F)cc(C(F)(F)F)c1 [Compound I-827] | ≥ 7.00 |
| Nc1cc(C2NC(=O)c3cccc(NC(=O)c4cc(F)cc(C(F)(F)F)c4)c32)ccn1 (stereo not drawn) [Compound I-828] | 4.00 to 5.00 |
| CC1(Nc2cc(NC(=O)c3cc(F)cc(C(F)(F)F)c3)c3c(c2)C(=O)N[C@@H]3c2cc(F)ccc2Cl)COC1 [Compound I-829] | 6.00 to 6.30 |
| O=C(Nc1cc(NC2COC2)cc2c1[C@@H](c1cc(F)ccc1Cl)NC2=O)c1cc(F)cc(C(F)(F)F)c1 [Compound I-830] | 5.00 to 6.00 |
| O=C(Nc1cc(Br)cc2c1C(c1cc(F)ccc1Cl)NC2=O)c1cc(F)cc(OC(F)(F)F)c1 (stereo not drawn) [Compound I-831] | 6.30 to 7.00 |
| O=C(Nc1cc(Br)cc2c1C(c1cc(F)ccc1Cl)NC2=O)c1cc(F)cc([N+](=O)[O-])c1 (stereo not drawn) [Compound I-832] | ≥ 7.00 |
| O=C(Nc1cc(Br)cc2c1C(c1cc(F)ccc1Cl)NC2=O)c1cc(F)cc(OC(F)F)c1 (stereo not drawn) [Compound I-833] | 6.30 to 7.00 |
| COc1c(Cl)cc(F)cc1C(=O)Nc1cc(Br)cc2c1C(c1cc(F)ccc1Cl)NC2=O (stereo not drawn) [Compound I-834] | 5.00 to 6.00 |
| O=C(Nc1cc(Br)cc2c1C(c1cc(F)ccc1Cl)NC2=O)c1cc(F)cc(C(F)F)c1 (stereo not drawn) [Compound I-835] | 6.30 to 7.00 |
| O=C(Nc1cc(Br)cc2c1C(c1cc(F)ccc1Cl)NC2=O)c1cc(F)cc(Cl)c1F (stereo not drawn) [Compound I-836] | 6.00 to 6.30 |
| O=C(Nc1cc(Br)cc2c1C(c1cc(F)ccc1Cl)NC2=O)c1cc(F)ccc1C(F)F (stereo not drawn) [Compound I-837] | 5.00 to 6.00 |
| O=C(Nc1cc(-c2cnc[nH]2)cc2c1C(c1cc(F)ccc1Cl)NC2=O)c1cc(F)cc(C(F)(F)F)c1 (stereo not drawn) [Compound I-838] | ≥ 7.00 |
| CNc1cc(C(F)(F)F)cc(C(=O)Nc2cccc3c2C(c2cc(F)ccc2Cl)NC3=O)n1 (stereo not drawn) [Compound I-839] | 4.00 to 5.00 |
| Cc1ccccc1CC1NC(=O)c2cccc(NC(=O)c3cc(F)cc(C(F)(F)F)c3)c21 (stereo not drawn) [Compound I-841] | 5.00 to 6.00 |
| O=C1NC(c2cc(F)ccc2Cl)c2c1cccc2-c1nc2c(C(F)(F)F)cc(F)cc2[nH]1 (stereo not drawn) [Compound I-842] | 6.30 to 7.00 |
| Nc1c(Cl)cc(F)cc1C(=O)Nc1cc(Br)cc2c1C(c1cc(F)ccc1Cl)NC2=O (stereo not drawn) [Compound I-843] | 6.30 to 7.00 |
| O=C(Nc1cccc2c1C(c1ccc3cn[nH]c3c1)NC2=O)c1cc(F)cc(C(F)(F)F)c1 (stereo not drawn) [Compound I-844] | 4.00 to 5.00 |
| O=C(Nc1cc(Br)cc2c1C(c1cc(F)ccc1Cl)NC2=O)c1cc(F)cc(Cl)c1O (stereo not drawn) [Compound I-845] | 6.00 to 6.30 |
| O/N=C(\Nc1cccc2c1C(c1cc(F)ccc1Cl)NC2=S)c1cc(F)cc(C(F)(F)F)c1 (stereo not drawn) [Compound I-846] | 6.00 to 6.30 |
| O=C(Nc1cc(Br)c(Cl)c2c1C(c1cc(F)ccc1Cl)NC2=O)c1cc(F)cc(C(F)(F)F)c1 (stereo not drawn) [Compound I-847] | ≥ 7.00 |
| CC(C)(O)CN(CC(C)(C)O)c1cc(NC(=O)c2cc(F)cc(C(F)(F)F)c2)c2c(c1)C(=O)NC2c1cc(F)ccc1Cl (stereo not drawn) [Compound I-848] | 5.00 to 6.00 |
| Cc1ncc(-c2cc(NC(=O)c3cc(F)cc(Cl)c3)c3c(c2)C(=O)NC3c2cc(F)ccc2Cl)cn1 (stereo not drawn) [Compound I-849] | ≥ 7.00 |

| SMILES | pIC50 |
| --- | --- |
| COc1cc(C)c(C(=O)Nc2cc(Br)cc3c2C(c2cc(F)ccc2Cl)NC3=O)cn1 (stereo not drawn) [Compound I-850] | 4.00 to 5.00 |
| O=C(Nc1cc(-c2ccc3c(c2)OCCCO3)cc2c1C(c1cc(F)ccc1Cl)NC2=O)c1cc(F)cc(C(F)(F)F)c1 (stereo not drawn) [Compound I-851] | ≥ 7.00 |
| O=C(Nc1cc(-c2cncc3ccccc23)cc2c1C(c1cc(F)ccc1Cl)NC2=O)c1cc(F)cc(C(F)(F)F)c1 (stereo not drawn) [Compound I-852] | ≥ 7.00 |
| Cn1ccc2cc(-c3cc(NC(=O)c4cc(F)cc(C(F)(F)F)c4)c4c(c3)C(=O)NC4c3cc(F)ccc3Cl)ccc21 (stereo not drawn) [Compound I-853] | 6.30 to 7.00 |
| COc1cncc(-c2cc(NC(=O)c3cc(F)cc(C(F)(F)F)c3)c3c(c2)C(=O)NC3c2cc(F)ccc2Cl)c1 (stereo not drawn) [Compound I-854] | ≥ 7.00 |
| O=C(Nc1cc(-c2ccc3cc[nH]c3c2)cc2c1C(c1cc(F)ccc1Cl)NC2=O)c1cc(F)cc(C(F)(F)F)c1 (stereo not drawn) [Compound I-855] | 6.30 to 7.00 |
| CC1(n2[nH]c(=O)c3cccc(NC(=O)c4cc(F)cc(C(F)(F)F)c4)c32)CCCCC1 [Compound I-857] | 5.00 to 6.00 |
| COc1c(F)cc(Cl)cc1C(=O)Nc1cc(Br)cc2c1C(c1cc(F)ccc1Cl)NC2=O (stereo not drawn) [Compound I-858] | 5.00 to 6.00 |
| O=C(Nc1cc(Br)cc2c1C(c1cc(F)ccc1Cl)NC2=O)c1cc(Cl)ccc1OC(F)(F)F (stereo not drawn) [Compound I-859] | 5.00 to 6.00 |
| O=C(Nc1cccc2c1[C@@H](c1cc(F)ccc1Cl)NC2=O)c1cc(F)cc(C(F)(F)F)c1 [Compound I-860] | 5.00 to 6.00 |
| O=C1CCC(c2cc(NC(=O)c3cc(F)cc(C(F)(F)F)c3)c3c(c2)C(=O)NC3c2cc(F)ccc2Cl)N1 (stereo not drawn) [Compound I-861] | ≥ 7.00 |
| O=C1NC(c2cc(F)ccc2Cl)c2c(Nc3ncnc4ccccc34)cc(Br)cc21 (stereo not drawn) [Compound I-864] | 4.00 to 5.00 |
| O=C(Nc1cc(-c2ccn[nH]2)cc2c1[C@@H](c1cc(F)ccc1Cl)NC2=O)c1cc(F)cc(C(F)(F)F)c1 [Compound I-866] | 5.00 to 6.00 |
| Cn1ccc(Nc2cc(NC(=O)c3cc(F)cc(C(F)(F)F)c3)c3c(c2)C(=O)NC3c2cc(F)ccc2Cl)n1 (stereo not drawn) [Compound I-867] | ≥ 7.00 |
| N#CC1(CNc2cc(NC(=O)c3cc(F)cc(C(F)(F)F)c3)c3c(c2)C(=O)N[C@@H]3c2cc(F)ccc2Cl)CC1 [Compound I-869] | 6.30 to 7.00 |
| Cn1cc2c(C(=O)Nc3cccc4c3C(c3cc(F)ccc3Cl)NC4=O)cc(F)cc2n1 (stereo not drawn) [Compound I-870] | 4.00 to 5.00 |
| Cn1ncc2c(C(=O)Nc3cccc4c3C(c3cc(F)ccc3Cl)NC4=O)cc(F)cc21 (stereo not drawn) [Compound I-871] | 4.00 to 5.00 |
| O=C(Nc1cccc2c1C(c1cc(F)ccc1Cl)NC2=O)c1cc(F)ccc1NC1CCC1 (stereo not drawn) [Compound I-872] | 5.00 to 6.00 |
| CC1(C)CC(COc2cc(NC(=O)c3cc(F)cc(C(F)(F)F)c3)c3c(c2)C(=O)NC3c2cc(F)ccc2Cl)O1 (stereo not drawn) [Compound I-873] | 6.30 to 7.00 |
| CNc1cc(C2NC(=O)c3cccc(NC(=O)c4cc(F)cc(C(F)(F)F)c4)c32)ccn1 (stereo not drawn) [Compound I-874] | 4.00 to 5.00 |
| Cc1ccc(C(=O)Nc2cc(Br)cc3c2C(c2cc(F)ccc2Cl)NC3=O)cc1C(F)(F)F (stereo not drawn) [Compound I-875] | 6.30 to 7.00 |
| O=C1NC(c2cc(F)ccc2Cl)c2c(NC(=O)C34CC5CC(CC(C5)C3)C4)cccc21 (stereo not drawn) [Compound I-876] | 6.30 to 7.00 |
| COc1ccc(C(=O)Nc2cc(Br)cc3c2C(c2cc(F)ccc2Cl)NC3=O)cc1C(F)(F)F (stereo not drawn) [Compound I-877] | 6.00 to 6.30 |
